{
  "source": "patent US7348342B2",
  "about": "“Heterocyclic compounds process for their preparation and pharmaceutical compositions containing them and their use in medicine” (Cadila Healthcare Limited, priority 2002, dated 2008)",
  "system": "carrageenan foot pad edema",
  "experiment": "carrageenan foot pad edema test",
  "type": "in vivo",
  "conditions": "Wistar rats, dose 30 mg/kg by oral gavage 1 h before carrageenan; for % Inhibition of paw edema 1 hour: 1 hour after carrageenan injection; for % Inhibition of paw edema 3 hour: 3 hour after carrageenan injection",
  "from_the_text": "The compounds of the present invention have been tested for their biological activities by carrageenan foot pad edema test in male as well as female Wistar rats according to standard protocol described in literature (Winter et. al, Proc. Soc. Exp. Biol. Med., 111, 544, (1962); Otterness and Bliven, Laboratory Models for Testing NSAIDS, in Non-Steroidal Anti-inflammatory Drugs, (J. Lombardino, ed. 1985)). The protocol followed was as described below:\nWistar rats obtained from the Experimental Animal Facility of Zydus Research. Centre. Animals were housed in an environmentally controlled rooms with food and water available ad-libitum. All the experimental protocols were approved by the Institutional Animal Ethics Committee. Animals were divided into different groups, each group comprising of five-six animals. After an overnight fast, animals of the control group received vehicle only by oral gavage whereas animals of the other groups received different doses of the test substance(s). Each rat received same volume of the formulation i.e. 2 ml/kg on body weight basis. One hour after administration of the vehicle or test substance, all the animals received sub-planter injection of carrageenan (1% w/v in saline). Paw volume was measured at 0, 1, 3 and 5 hour after carrageenan injection. Anti-inflammatory activity, expressed as % Inhibition in paw swelling was calculated by measuring change in paw volume at different time intervals after carrageenan injection vs corresponding 0 hr values using the following formula.\n[formula] Where • PVC=Average change in Paw volume of control animals • PVT=Average change in Paw volume of treated animals.",
  "data": [
    {"molecule": "3-(4-Methoxyphenyl)-5-methyl-4-(4-methylsulfoximinylphenyl)-isoxazole [Compound 154]", "values": [
      {"measurement": "% Inhibition of paw edema 1 hour", "result": 46, "unit": "%"},
      {"measurement": "% Inhibition of paw edema 3 hour", "result": 47, "unit": "%"}
    ]},
    {"molecule": "3-(4-Methylphenyl)-4-(3-fluoro-4-methylsulfoximinylphenyl-5H-furan-2-one [Compound 112]", "values": [
      {"measurement": "% Inhibition of paw edema 1 hour", "result": 57, "unit": "%"},
      {"measurement": "% Inhibition of paw edema 3 hour", "result": 40, "unit": "%"}
    ]},
    {"molecule": "5-Chloro-3-(4-methylsulfoximinylphenyl)-[2,3′]bipyridinyl [Compound 97]", "values": [
      {"measurement": "% Inhibition of paw edema 1 hour", "result": 13, "unit": "%"},
      {"measurement": "% Inhibition of paw edema 3 hour", "result": 36, "unit": "%"}
    ]},
    {"molecule": "5-methyl-4-(4-methylsulfoximinylphenyl)-3-phenyl-isoxazole [Compound 153]", "values": [
      {"measurement": "% Inhibition of paw edema 1 hour", "result": 42, "unit": "%"},
      {"measurement": "% Inhibition of paw edema 3 hour", "result": 43, "unit": "%"}
    ]},
    {"molecule": "Cc1ccc(-c2cc(C(F)(F)F)nn2-c2ccc(S(N)(=O)=O)cc2)cc1", "note": "[Celecoxib, reference compound]", "values": [
      {"measurement": "% Inhibition of paw edema 1 hour", "result": 33, "unit": "%"},
      {"measurement": "% Inhibition of paw edema 3 hour", "result": 26, "unit": "%"}
    ]}
  ]
}
